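Values below derive from 48-hour exposures of cells grown in 96-well plates, with endpoints linearly interpolated between the two concentrations bracketing the appropriate inhibition level. GI50: concentration for 50% inhibition of growth.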 Activity calls are given as the source filed them. No stated cut-off is given here; in the data, active = GI50 up to about 1.1 µM and inactive = higher.
Legend:
Test in all cases: inhibition of tumour cell growth, NCI panel, 48 h
DLD-1 = system: DLD-1
HOP-18 = system: HOP-18
RXF 393 = system: RXF 393
MOLT-4 = system: MOLT-4
A498 = system: A498
IGROV-1 = system: IGROV-1
CCRF-CEM = system: CCRF-CEM
NCI-H226 = system: NCI-H226
M19-MEL = system: M19-MEL
786-0 = system: 786-0
OVCAR-8 = system: OVCAR-8
TK-10 = system: TK-10
OVCAR-5 = system: OVCAR-5
UACC-257 = system: UACC-257
U-251 = system: U-251
KM12 = system: KM12
NCI-H23 = system: NCI-H23
M14 = system: M14
KM-20L2 = system: KM-20L2
A549 = system: A549
SN12C = system: SN12C
OVCAR-3 = system: OVCAR-3
NCI-H522 = system: NCI-H522
HCC 2998 = system: HCC 2998
UACC-62 = system: UACC-62
COLO 205 = system: COLO 205
HT-29 = system: HT-29
SNB-19 = system: SNB-19
Malme-3M = system: Malme-3M
K562 = system: K562
DMS-114 = system: DMS-114
ACHN = system: ACHN
RPMI-8226 = system: RPMI-8226
SW-620 = system: SW-620
SF-539 = system: SF-539
SK-MEL-5 = system: SK-MEL-5
NCI-H460 = system: NCI-H460
HOP-92 = system: HOP-92
HOP-62 = system: HOP-62
XF498 = system: XF498
HCT-116 = system: HCT-116
CAKI-1 = system: CAKI-1
EKVX = system: EKVX
SK-MEL-2 = system: SK-MEL-2
HCT-15 = system: HCT-15
UO-31 = system: UO-31
SR = system: SR
OVCAR-4 = system: OVCAR-4
LXFL 529 = system: LXFL 529
SF-295 = system: SF-295
HL-60 = system: HL-60
LOX IMVI = system: LOX IMVI
SNB-75 = system: SNB-75
SK-OV-3 = system: SK-OV-3
SF-268 = system: SF-268
DMS-273 = system: DMS-273
SNB-78 = system: SNB-78
SK-MEL-28 = system: SK-MEL-28

CCOC(=O)C1=C(C)N(NC(=O)Nc2ccccc2)C(=O)C1=P(c1ccccc1)(c1ccccc1)c1ccccc1
GI50 (DLD-1): 33.6 µM (inactive)
GI50 (HOP-18): 58.1 µM (inactive)
GI50 (RXF 393): 28 µM (inactive)
GI50 (MOLT-4): 18.8 µM (inactive)
GI50 (A498): 29.5 µM (inactive)
GI50 (IGROV-1): 29.6 µM (inactive)
GI50 (CCRF-CEM): 26.1 µM (inactive)
GI50 (NCI-H226): 50 µM (inactive)
GI50 (M19-MEL): 32.6 µM (inactive)
GI50 (786-0): 63 µM (inactive)
GI50 (OVCAR-8): 40 µM (inactive)
GI50 (TK-10): 56.5 µM (inactive)
GI50 (OVCAR-5): > 100 µM (inactive)
GI50 (UACC-257): 45.7 µM (inactive)
GI50 (U-251): 33.9 µM (inactive)
GI50 (KM12): > 10 µM (inactive)
GI50 (NCI-H23): 41.6 µM (inactive)
GI50 (M14): 32.4 µM (inactive)
GI50 (KM-20L2): 40.6 µM (inactive)
GI50 (A549): 48.9 µM (inactive)
GI50 (SN12C): 28.1 µM (inactive)
GI50 (OVCAR-3): 36.5 µM (inactive)
GI50 (NCI-H522): 19.4 µM (inactive)
GI50 (HCC 2998): 47.2 µM (inactive)
GI50 (UACC-62): 25.6 µM (inactive)
GI50 (COLO 205): 25.3 µM (inactive)
GI50 (HT-29): 52.2 µM (inactive)
GI50 (SNB-19): > 100 µM (inactive)
GI50 (Malme-3M): 36.2 µM (inactive)
GI50 (K562): 26.6 µM (inactive)
GI50 (DMS-114): 32.2 µM (inactive)
GI50 (ACHN): 36.6 µM (inactive)
GI50 (RPMI-8226): 24.2 µM (inactive)
GI50 (SW-620): 31 µM (inactive)
GI50 (SF-539): 28.2 µM (inactive)
GI50 (SK-MEL-5): 33.8 µM (inactive)
GI50 (NCI-H460): 38.6 µM (inactive)
GI50 (HOP-92): 31 µM (inactive)
GI50 (HOP-62): > 100 µM (inactive)
GI50 (XF498): 31.8 µM (inactive)
GI50 (HCT-116): 39.1 µM (inactive)
GI50 (CAKI-1): 44.7 µM (inactive)
GI50 (EKVX): 54.3 µM (inactive)
GI50 (SK-MEL-2): 22.4 µM (inactive)
GI50 (HCT-15): 27.5 µM
GI50 (UO-31): 74.6 µM (inactive)
GI50 (SR): 16.9 µM (inactive)
GI50 (OVCAR-4): 35.2 µM (inactive)
GI50 (LXFL 529): 35.2 µM (inactive)
GI50 (SF-295): 48.4 µM (inactive)
GI50 (HL-60): 21.4 µM (inactive)
GI50 (LOX IMVI): 41.2 µM (inactive)
GI50 (SNB-75): 38 µM (inactive)
GI50 (SK-OV-3): > 100 µM (inactive)
GI50 (SF-268): > 100 µM (inactive)
GI50 (DMS-273): 40.6 µM (inactive)

CCCCCCCCCCCCCCCC(=O)N[C@H]1CCc2cc(OC)c(OC)c(OC)c2-c2ccc(SC)c(=O)cc21
GI50 (DLD-1): 0.365 µM (active)
GI50 (HOP-18): 0.933 µM (active)
GI50 (RXF 393): 3.02 µM (inactive)
GI50 (MOLT-4): 1.23 µM (inactive)
GI50 (A498): 0.692 µM (active)
GI50 (IGROV-1): 2.58 µM (inactive)
GI50 (CCRF-CEM): 0.356 µM (active)
GI50 (SNB-78): 0.492 µM (active)
GI50 (NCI-H226): 0.196 µM (active)
GI50 (M19-MEL): 0.458 µM (active)
GI50 (786-0): 2.36 µM (inactive)
GI50 (OVCAR-8): 0.557 µM (active)
GI50 (TK-10): 0.492 µM (active)
GI50 (OVCAR-5): 15.2 µM (inactive)
GI50 (UACC-257): 0.527 µM (active)
GI50 (U-251): 0.294 µM (active)
GI50 (KM12): 0.29 µM (active)
GI50 (NCI-H23): 0.29 µM (active)
GI50 (M14): 0.279 µM (active)
GI50 (KM-20L2): 0.186 µM (active)
GI50 (A549): 0.486 µM (active)
GI50 (SN12C): 0.649 µM (active)
GI50 (OVCAR-3): 0.225 µM (active)
GI50 (HCC 2998): 0.297 µM (active)
GI50 (UACC-62): 0.601 µM (active)
GI50 (COLO 205): 0.187 µM (active)
GI50 (HT-29): 0.253 µM (active)
GI50 (SNB-19): 0.973 µM (active)
GI50 (Malme-3M): 0.762 µM (active)
GI50 (K562): 0.325 µM (active)
GI50 (ACHN): 2.2 µM (inactive)
GI50 (RPMI-8226): 3.64 µM (inactive)
GI50 (SW-620): 0.45 µM (active)
GI50 (SK-MEL-28): 0.782 µM (active)
GI50 (SF-539): 0.294 µM (active)
GI50 (SK-MEL-5): 0.5 µM (active)
GI50 (NCI-H460): 0.376 µM (active)
GI50 (HOP-92): 0.891 µM (active)
GI50 (HOP-62): 7.73 µM (inactive)
GI50 (XF498): 0.769 µM (active)
GI50 (HCT-116): 0.338 µM (active)
GI50 (CAKI-1): 21.1 µM (inactive)
GI50 (EKVX): 0.454 µM (active)
GI50 (SK-MEL-2): 1.46 µM (inactive)
GI50 (HCT-15): 1.15 µM
GI50 (UO-31): 3.52 µM (inactive)
GI50 (SR): 0.258 µM (active)
GI50 (OVCAR-4): 3.24 µM (inactive)
GI50 (LXFL 529): 0.486 µM (active)
GI50 (SF-295): 0.664 µM (active)
GI50 (HL-60): 0.279 µM (active)
GI50 (LOX IMVI): 2.45 µM (inactive)
GI50 (SNB-75): 0.238 µM (active)
GI50 (SK-OV-3): 1.67 µM (inactive)
GI50 (SF-268): 0.54 µM (active)

— ChEMBL document CHEMBL1201862, “PubChem BioAssay data set” (2004)
